# pEC50: −log10 of the molar value.
# Target: T1, S1P5 receptors (Homo sapiens, UniProt Q9H228)
# T1 construct: expressed in transfected cells; host or cells: CHO cells (membranes)
# Assay: [35S]-GTPγS binding assay on CHO-S1P5 membranes (S1P5 agonism)
# Assay type: biochemical
# Conditions: membranes of CHO cells expressing recombinant S1P5; measure of S1P5 agonism
# Protocol: CHO cells expressing recombinant S1P5 receptors were cultured in 500 cm^2 culture trays and, once confluent, rinsed and detached with cell-lifting buffer (10 mM HEPES, 154 mM NaCl, 6.85 mM EDTA, pH 7.4). Cells were then pelleted by centrifugation, resuspended, and homogenized in membrane preparation buffer (10 mM HEPES and 10 mM EDTA, pH 7.4) using a Polytron PT 1200E homogenizer (Kinematica, Luzern, Switzerland). Cellular proteins were pelleted by centrifugation at 48,000×g at 4° C. for 30 minutes. The resulting supernatant was discarded, and the pellet was re-suspended again in membrane preparation buffer, homogenized for a second time, and then centrifuged again as described above. The final cellular protein pellet was suspended in ice cold resuspension buffer (10 mM HEPES and 0.1 mM EDTA, pH 7.4), divided into aliquots, and stored at −80° C. until use.
# Functional binding assays for [^35S]-GTPγS were performed in 96-well non-binding surface plates with a final volume of 200 μL. The test compounds were serially diluted in DMSO and added to assay plates using a Tecan D300E digital printer with a total volume of 0.4 μL. The control sphingosine-1-phosphate (SIP) was prepared separately by preparing a 400 µM stock solution from a 100 nmol pellet of S1P in 10 mM Na2CO3 with 2% β-cyclodextrin. The serial dilution of S1P was done using complete assay buffer (20 mM HEPES, 10 mM MgCl2, 100 mM NaCl, 1 mM EDTA, 0.1% fatty acid free bovine serum albumin (BSA), and 30 μg/mL saponin, pH 7.4) and transferred to wells already containing 0.4 μL DMSO. All the wells were then loaded to a total volume of 40 μL of complete assay buffer, except the non-specific binding (NSB) wells. For NSB wells, 40 μL/well of 50 μM GTPγS (Sigma Aldrich, cat #G8634, St. Louis, MO) was added to wells containing 0.4 μL of DMSO. The assay was started by the addition of 120 μL/well of CHO-SIP receptor membrane solution containing 40 μg/mL of membrane protein, 16.67 μM guanosine diphosphate (GDP; Sigma Aldrich, cat #G7127, St. Louis, MO), and 2.5 mg/mL of WGA PVT SPA beads in complete buffer. Assay plates were then sealed and incubated at room temperature with gentle agitation for 30 minutes. Next, 40 μL/well of 1 nM of [^35S]-GTPγS (PerkinElmer, cat #NEG030X^250UC, Waltham, MA) in basic assay buffer (20 mM HEPES, 10 mM MgCl2, 100 mM NaCl, and 1 mM EDTA, pH7.4) was added to the assay plates to yield a final concentration of […] and the plates were further incubated for 40 minutes at room temperature with gentle agitation. The assay was terminated by centrifugation of the plates at 1000 rpm for 3 minutes using an Eppendorf 5810R centrifuge (Eppendorf, Hamburg, Germany) and G protein bound radioactivity was quantitated using a MicroBeta2 microplate scintillation counter (PerkinElmer, Waltham, MA). As G protein bound radioactivity directly correlates to receptor activation and coupling to the G protein, this assay is a measure of S1P5 agonism.
# T1 sequence (Q9H228 whole entry): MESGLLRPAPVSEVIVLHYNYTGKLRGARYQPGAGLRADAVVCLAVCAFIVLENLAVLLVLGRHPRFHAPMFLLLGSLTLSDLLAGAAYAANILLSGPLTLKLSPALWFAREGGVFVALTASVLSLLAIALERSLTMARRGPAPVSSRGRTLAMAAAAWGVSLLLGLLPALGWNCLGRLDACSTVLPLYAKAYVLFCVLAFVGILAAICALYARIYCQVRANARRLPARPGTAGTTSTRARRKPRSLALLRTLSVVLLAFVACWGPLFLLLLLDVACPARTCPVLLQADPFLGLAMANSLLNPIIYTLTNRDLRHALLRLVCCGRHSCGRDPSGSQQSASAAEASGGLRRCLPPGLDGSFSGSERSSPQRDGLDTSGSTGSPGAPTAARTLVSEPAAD
row,SMILES,pEC50
1,"CC1(O)CN(C2CCc3cc(C#Cc4ccccc4F)ccc32)C1 (single isomer, unassigned) [Compound 1a, 1-[5-[2-(2-fluorophenyl)ethynyl]indan-1-yl]-3-methyl-azetidin-3-ol]",7.00 to 8.00
2,"CC1(O)CN(C2CCc3cc(C#Cc4cccc(F)c4)ccc32)C1 (single isomer, unassigned) [Compound 2b, 1-[5-[2-(3-fluorophenyl)ethynyl]indan-1-yl]-3-methyl-azetidin-3-ol]",7.00 to 8.00
3,"CC1(O)CN(C2CCc3cc(OCc4c(Cl)cccc4Cl)ccc32)C1 (single isomer, unassigned) [Compound 3a, 1-(5-((2,6-dichlorobenzyl)oxy)-2,3-dihydro-1H-inden-1-yl)-3-methylazetidin-3-ol]",8.00 to 9.00
4,"CC1(O)CN(C2CCc3cc(-c4ccc(C5CC5)c(F)c4)ccc32)C1 (single isomer, unassigned) [Compound 4a, 1-(5-(4-cyclopropyl-3-fluorophenyl)-2,3-dihydro-1H-inden-1-yl)-3-methyl azetidin-3-ol]",7.00 to 8.00
5,"CC1(O)CN(C2CCc3cc(-c4ccc(C5CC5)c(F)c4)ccc32)C1 (single isomer, unassigned) [Compound 4b, 1-(5-(4-cyclopropyl-3-fluorophenyl)-2,3-dihydro-1H-inden-1-yl)-3-methyl azetidin-3-ol]",6.00 to 7.00
6,"CC1(O)CN(C2CCc3cc(-c4ccc(C5CC5)c(Cl)c4)ccc32)C1 (single isomer, unassigned) [Compound 5a, 1-[5-(3-chloro-4-cyclopropyl-phenyl)indan-1-yl]-3-methyl-azetidin-3-ol]",7.00 to 8.00
7,"Cc1cc(-c2ccc(C3CC3)c(Cl)c2)cc2c1C(N1CC(C)(O)C1)CC2 (single isomer, unassigned) [Compound 10b, 1-[5-(3-chloro-4-cyclopropyl-phenyl)-7-methyl-indan-1-yl]-3-methyl-azetidin-3-ol]",8.00 to 9.00
8,"Cc1cc(C#Cc2cccc(F)c2)cc2c1C(N1CC(C)(O)C1)CC2 (single isomer, unassigned) [Compound 13a, 1-[5-[2-(3-fluorophenyl)ethynyl]-7-methyl-indan-1-yl]-3-methyl-azetidin-3-ol]",7.00 to 8.00
9,"Cc1cc(C#Cc2cccc(F)c2)cc2c1C(N1CC(C)(O)C1)CC2 (single isomer, unassigned) [Compound 13b, 1-[5-[2-(3-fluorophenyl)ethynyl]-7-methyl-indan-1-yl]-3-methyl-azetidin-3-ol]",7.00 to 8.00
10,"Cc1cc(CCc2c(Cl)cccc2Cl)cc2c1C(N1CC(C)(O)C1)CC2 (single isomer, unassigned) [Compound 14a, 1-[5-[2-(2,6-dichlorophenyl)ethyl]-7-methyl-indan-1-yl]-3-methyl-azetidin-3-ol]",8.00 to 9.00
11,"Cc1cc(OCc2c(Cl)cccc2Cl)cc2c1C(N1CC(C)(O)C1)CC2 (single isomer, unassigned) [Compound 15b, 1-[5-[(2,6-dichlorophenyl)methoxy]-7-methyl-indan-1-yl]-3-methyl-azetidin-3-ol]",8.00 to 9.00
12,"Cc1c(-c2ccc(C3CC3)c(Cl)c2)ccc2c1CCC2N1CC(C)(O)C1 (single isomer, unassigned) [Compound 16a, 1-[5-(3-chloro-4-cyclopropyl-phenyl)-4-methyl-indan-1-yl]-3-methyl-azetidin-3-ol]",8.00 to 9.00
13,"Cc1c(-c2ccc(C3CC3)c(Cl)c2)ccc2c1CCC2N1CC(C)(O)C1 (single isomer, unassigned) [Compound 16b, 1-[5-(3-chloro-4-cyclopropyl-phenyl)-4-methyl-indan-1-yl]-3-methyl-azetidin-3-ol]",8.00 to 9.00
14,"Cc1c(C#Cc2cccc(F)c2)ccc2c1CCC2N1CC(C)(O)C1 (single isomer, unassigned) [Compound 17a, 1-[5-[2-(3-fluorophenyl)ethynyl]-4-methyl-indan-1-yl]-3-methyl-azetidin-3-ol]",7.00 to 8.00
15,"Cc1c(C#Cc2cccc(F)c2)ccc2c1CCC2N1CC(C)(O)C1 (single isomer, unassigned) [Compound 17b, 1-[5-[2-(3-fluorophenyl)ethynyl]-4-methyl-indan-1-yl]-3-methyl-azetidin-3-ol]",7.00 to 8.00
16,"Cc1c(CCc2c(Cl)cccc2Cl)ccc2c1CCC2N1CC(C)(O)C1 (single isomer, unassigned) [Compound 18a, 1-[5-[2-(2,6-dichlorophenyl)ethyl]-4-methyl-indan-1-yl]-3-methyl-azetidin-3-ol]",8.00 to 9.00
17,"Cc1c(CCc2c(Cl)cccc2Cl)ccc2c1CCC2N1CC(C)(O)C1 (single isomer, unassigned) [Compound 18b, 1-[5-[2-(2,6-dichlorophenyl)ethyl]-4-methyl-indan-1-yl]-3-methyl-azetidin-3-ol]",8.00 to 9.00
18,"Cc1c(OCc2c(Cl)cccc2Cl)ccc2c1CCC2N1CC(C)(O)C1 (single isomer, unassigned) [Compound 19a, 1-[5-[(2,6-dichlorophenyl)methoxy]-4-methyl-indan-1-yl]-3-methyl-azetidin-3-ol]",8.00 to 9.00
19,"Cc1c(OCc2c(Cl)cccc2Cl)ccc2c1CCC2NCC(C)(C)O (single isomer, unassigned) [Compound 20a, 1-((5-((2,6-dichlorobenzyl)oxy)-4-methyl-2,3-dihydro-1H-inden-1-yl)amino)-2-methylpropan-2-ol]",7.00 to 8.00
20,"Cc1cc2c(cc1-c1ccc(C3CC3)c(Cl)c1)CCC2N1CC(C)(O)C1 (single isomer, unassigned) [Compound 21a, 1-[5-(3-chloro-4-cyclopropyl-phenyl)-6-methyl-indan-1-yl]-3-methyl-azetidin-3-ol]",7.00 to 8.00

# The remaining lines, values ahead:
row,pEC50,SMILES
1,7.00 to 8.00,"CC1(O)CN(C2CCc3cc(C#Cc4ccccc4F)ccc32)C1 (single isomer, unassigned) [Compound 1b, 1-[5-[2-(2-fluorophenyl)ethynyl]indan-1-yl]-3-methyl-azetidin-3-ol]"
2,6.00 to 7.00,"CC1(O)CN(C2CCc3cc(C#Cc4cccc(F)c4)ccc32)C1 (single isomer, unassigned) [Compound 2a, 1-[5-[2-(3-fluorophenyl)ethynyl]indan-1-yl]-3-methyl-azetidin-3-ol]"
3,7.00 to 8.00,"CC1(O)CN(C2CCc3cc(OCc4c(Cl)cccc4Cl)ccc32)C1 (single isomer, unassigned) [Compound 3b, 1-(5-((2,6-dichlorobenzyl)oxy)-2,3-dihydro-1H-inden-1-yl)-3-methylazetidin-3-ol]"
4,7.00 to 8.00,"CC1(O)CN(C2CCc3cc(-c4ccc(C5CC5)c(Cl)c4)ccc32)C1 (single isomer, unassigned) [Compound 5b, 1-[5-(3-chloro-4-cyclopropyl-phenyl)indan-1-yl]-3-methyl-azetidin-3-ol]"
5,8.00 to 9.00,"Cc1cc(-c2ccc(C3CC3)c(Cl)c2)cc2c1C(N1CC(C)(O)C1)CC2 (single isomer, unassigned) [Compound 10a, 1-[5-(3-chloro-4-cyclopropyl-phenyl)-7-methyl-indan-1-yl]-3-methyl-azetidin-3-ol]"
6,8.00 to 9.00,"Cc1cc(CCc2c(Cl)cccc2Cl)cc2c1C(N1CC(C)(O)C1)CC2 (single isomer, unassigned) [Compound 14b, 1-[5-[2-(2,6-dichlorophenyl)ethyl]-7-methyl-indan-1-yl]-3-methyl-azetidin-3-ol]"
7,8.00 to 9.00,"Cc1cc(OCc2c(Cl)cccc2Cl)cc2c1C(N1CC(C)(O)C1)CC2 (single isomer, unassigned) [Compound 15a, 1-[5-[(2,6-dichlorophenyl)methoxy]-7-methyl-indan-1-yl]-3-methyl-azetidin-3-ol]"
8,8.00 to 9.00,"Cc1c(OCc2c(Cl)cccc2Cl)ccc2c1CCC2N1CC(C)(O)C1 (single isomer, unassigned) [Compound 19b, 1-[5-[(2,6-dichlorophenyl)methoxy]-4-methyl-indan-1-yl]-3-methyl-azetidin-3-ol]"
9,6.00 to 7.00,"Cc1c(OCc2c(Cl)cccc2Cl)ccc2c1CCC2NCC(C)(C)O (single isomer, unassigned) [Compound 20b, 1-((5-((2,6-dichlorobenzyl)oxy)-4-methyl-2,3-dihydro-1H-inden-1-yl)amino)-2-methylpropan-2-ol]"
